Measurements published in patent publication US9359341B2, “Aldehyde derivative of substitute oxazolidinones” (WANBURY LTD., priority 2012, dated 2016).

Tests used:
[1] = In vitro stability in mouse plasma; assay type: in vitro ADME
Method: (§1) The final concentration of the test compound in the assay is 5 micromolar. […] C. The 100 microliters of aliquot at time point was removed and diluted with ice cold acetonitrile containing IS (200.mu·L) to stop the reactions. Samples are centrifuged at 10,000 RPM for 5 minutes to precipitate proteins. Supernatants are transferred to micro centrifuge tubes and stored at −20° C. for analysis of LC/MS/MS. The percent parent remaining of the test substance is calculated as ratio of peak area at each time point to peak area ratio at zero min, multiplied by 100.
(§2) API 4000, ESI Agilent 1100 column: Gemini Nx 100 mm×4.6 mm 5.1; column temperature: 30° C.; eluent A: 0.1% formic acid in water, eluent B: acetonitrile; gradient: 0-2.5 min 95% A, 5% B; 2.5-2.6 min 5% A, 95% B; 2.6-4.2 min 95% A, 5% B; flow rate: 0.8 ml/min; ESI. Q1:464.098, Q3:144.255

[2] = In vitro liver microsomal stability assay (rat); assay type: in vitro ADME; conditions: rat liver microsomes
Method: (§3) Liver microsomal stability assays are conducted at 1 mg per mL liver microsome protein with an NADPH in phosphate buffer (100 mM, pH 7.4). Test compounds (compound of formula B of the invention) are prepared as solutions in 20% methanol-water and added to the assay mixture (final assay concentration 1 μM) and incubated at 37° C. Aliquots (100.μ·L) are taken out at times 0, 15, and 30 minutes, and diluted with ice cold acetonitrile containing IS (200.mu·L) to stop the reactions. Samples are centrifuged at 10,000 RPM for 5 minutes to precipitate proteins. Supernatants are transferred to micro centrifuge tubes and stored at −20° C. for analysis of LC/MS/MS. The percent parent remaining of the test substance is calculated as Ratio of peak area at each time point to peak area ratio at zero min, multiplied by 100. The compound formula (B) is converted to Rivaroxaban in microsomal assay.

CYP2D6 = CYP2D6 (Homo sapiens (Human), UniProt P10635); test: CYP inhibition assay; assay type: in vitro ADME; conditions: pooled human liver microsomes; extrapolated IC50 derived from 3 μM; read-out: IC50 (μM) of CYP isoforms, 2D6
Method: (§4) The ability of substances to inhibit CYP1A2, CYP2C9, CYP2D6, CYP2C19, CYP2J2 and CYP3A4 in humans was investigated with pooled human liver microsomes as enzyme source in the presence of standard substrates (see below) which form CYP-isoform-specific metabolites.
(§5) Standard incubation mixtures comprise NADPH and substrates in 100 mM phosphate buffer (pH 7.4) in a total volume of 200 μl. Test compound are dissolved in acetonitrile. Incubated with pooled human liver microsomes at 37° C. for a defined time. The reactions are stopped by adding 100 μl of acetonitrile in which a suitable internal standard is always present. Precipitated proteins are removed by centrifugation, and the supernatants analyzed by LC-MS/MS. The data represents the extrapolated IC50 (μM) concentration derived from 3 μM.

CYP2C9 = CYP2C9 (Homo sapiens (Human), UniProt P11712); test: CYP inhibition assay; assay type: in vitro ADME; conditions: pooled human liver microsomes; extrapolated IC50 derived from 3 μM; read-out: IC50 (μM) of CYP isoforms, 2C9
Method: as §4, §5

CYP2C19 = CYP2C19 (Homo sapiens (Human), UniProt P33261); test: CYP inhibition assay; assay type: in vitro ADME; conditions: pooled human liver microsomes; extrapolated IC50 derived from 3 μM; read-out: IC50 (μM) of CYP isoforms, 2C19
Method: as §4, §5

CYP2J2 = CYP2J2 (Homo sapiens (Human), UniProt P51589); test: CYP inhibition assay; assay type: in vitro ADME; conditions: pooled human liver microsomes; extrapolated IC50 derived from 3 μM
Method: as §4, §5

[3] = In vitro stability in human plasma; assay type: in vitro ADME
Method: as §1, §2

[4] = In vitro liver microsomal stability assay (mouse); assay type: in vitro ADME; conditions: mouse liver microsomes
Method: as §3

[5] = Intravenous and oral excretion profile in Wistar rats; assay type: in vivo; conditions: for Mean (ng) Urine: IV 1 mg/Kg, rivaroxaban in urine
Method: On the day before administration of the substance, a catheter for obtaining blood is implanted in the jugular vein of the experimental animals (male Wistar rats, body weight 200-250 g) under Isoflurane. anesthesia.
Urine and faeces are taken collected from metabolic cages over the course of 144 h after administration of the substance. The administration volume is 10 ml/kg for oral and 1 ml/kg for IV in male Wistar rats. Intravenous administration is via a formulation of 2% N—N Dimethyl acetamide/ethanol 10%/PEG400 (30%)/water for IV injection (58%) and via Tween80/PEG400/sterile water in the case of oral administration. Urine and faeces collection is 0-4, 4-8, 8-24, 24-48, 48-72, 72-96, 96-120, 120-144 in the case of IV and for oral administration.
Urine and faeces was processed and IS containing Acetonitrile is added to a defined urine/faeces and precipitated. After centrifugation, compound formula (B) and, where appropriate, known cleavage products of the compound formula (B) in the supernatant are determined quantitatively using a suitable LC/MS-MS method.
The measured urine and faeces concentrations are used to calculate parameters of the test substance and of the active ingredient compound (A) liberated there from, such as AUC and Cmax.
Acetonitrile containing IS is added to the study samples, calibration samples and QCs, and the protein is precipitated using acetonitrile. Vortexed and centrifuged and the supernatant is injected by LC-MS/MS (API 4000, AB Sciex). Chromatographic separation is carried out on an Shimadzu UFLC. The injection volume is 10 μl. The separation column used is a Phenomenex Gemini NX 4.6×5μ. 100 mm, adjusted to a temperature of 30° C. A binary mobile phase gradient at 800.mu·l/min is used (A: 0.1% formic acid in water, B: acetonitrile: API 4000, ESI Agilent 1100 column: Gemini Nx 100 mm×4.6 mm 5.μ; column temperature: 30° C.; eluent A: 0.1% formic acid in water, eluent B: acetonitrile; gradient: 0-2.5 min 95% A, 5% B; 2.5-2.6 min 5% A, 95% B; 2.6-4.2 min 95% A, 5% B; flow rate: 0.8 ml/min; ESI. Q1:464.098, Q3:144.255 The temperature of the Turbo V ion source is 500° C. The following MS instrument parameters are used: curtain gas 20 units, ion spray voltage 5 kV, gas 1 50 units gas 2 50 units, CAD gas 6 units. The substances are quantified by peak heights or areas using extracted ion chromatograms of specific MRM experiments.

[6] = In vitro liver microsomal stability assay (human); assay type: in vitro ADME; conditions: human liver microsomes
Method: as §3

[7] = In vitro stability in rat plasma; assay type: in vitro ADME
Method: as §1, §2

CYP1A2 = CYP1A2 (Homo sapiens (Human), UniProt P05177); test: CYP inhibition assay; assay type: in vitro ADME; conditions: pooled human liver microsomes; extrapolated IC50 derived from 3 μM; read-out: IC50 (μM) of CYP isoforms, 1A2
Method: as §4
as §5, with “LC-MS/MS.” for “LC-MS/MS. The data represents the extrapolated IC50 (μM) concentration derived from 3 μM.”

Sequence of CYP2J2 (P51589 whole entry): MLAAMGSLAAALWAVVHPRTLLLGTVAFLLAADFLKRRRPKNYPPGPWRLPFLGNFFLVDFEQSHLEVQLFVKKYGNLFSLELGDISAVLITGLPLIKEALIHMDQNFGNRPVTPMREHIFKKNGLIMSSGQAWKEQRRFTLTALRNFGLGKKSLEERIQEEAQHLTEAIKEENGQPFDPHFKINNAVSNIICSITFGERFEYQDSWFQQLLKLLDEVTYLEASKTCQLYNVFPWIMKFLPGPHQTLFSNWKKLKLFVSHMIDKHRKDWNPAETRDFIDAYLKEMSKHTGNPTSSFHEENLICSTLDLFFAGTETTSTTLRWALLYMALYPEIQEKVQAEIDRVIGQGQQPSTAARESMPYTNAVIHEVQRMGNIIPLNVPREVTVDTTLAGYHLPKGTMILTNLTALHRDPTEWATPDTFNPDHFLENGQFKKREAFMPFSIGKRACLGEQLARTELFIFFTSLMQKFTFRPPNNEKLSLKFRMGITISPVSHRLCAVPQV
Sequence of CYP2C19 (P33261 whole entry, canonical isoform): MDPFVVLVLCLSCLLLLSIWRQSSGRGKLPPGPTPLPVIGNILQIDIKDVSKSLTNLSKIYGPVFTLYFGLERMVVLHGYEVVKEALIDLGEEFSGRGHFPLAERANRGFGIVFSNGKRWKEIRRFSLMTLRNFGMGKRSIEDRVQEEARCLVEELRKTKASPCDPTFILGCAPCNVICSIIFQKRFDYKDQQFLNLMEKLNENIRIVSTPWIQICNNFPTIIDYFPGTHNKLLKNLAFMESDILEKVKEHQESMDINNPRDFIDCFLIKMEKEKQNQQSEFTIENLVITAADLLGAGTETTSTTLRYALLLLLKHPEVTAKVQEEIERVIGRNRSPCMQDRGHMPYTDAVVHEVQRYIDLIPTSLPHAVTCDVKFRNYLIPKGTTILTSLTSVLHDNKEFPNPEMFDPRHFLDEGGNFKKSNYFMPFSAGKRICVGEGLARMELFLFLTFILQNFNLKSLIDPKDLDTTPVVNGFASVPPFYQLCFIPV
Sequence of CYP1A2 (P05177 whole entry, canonical isoform): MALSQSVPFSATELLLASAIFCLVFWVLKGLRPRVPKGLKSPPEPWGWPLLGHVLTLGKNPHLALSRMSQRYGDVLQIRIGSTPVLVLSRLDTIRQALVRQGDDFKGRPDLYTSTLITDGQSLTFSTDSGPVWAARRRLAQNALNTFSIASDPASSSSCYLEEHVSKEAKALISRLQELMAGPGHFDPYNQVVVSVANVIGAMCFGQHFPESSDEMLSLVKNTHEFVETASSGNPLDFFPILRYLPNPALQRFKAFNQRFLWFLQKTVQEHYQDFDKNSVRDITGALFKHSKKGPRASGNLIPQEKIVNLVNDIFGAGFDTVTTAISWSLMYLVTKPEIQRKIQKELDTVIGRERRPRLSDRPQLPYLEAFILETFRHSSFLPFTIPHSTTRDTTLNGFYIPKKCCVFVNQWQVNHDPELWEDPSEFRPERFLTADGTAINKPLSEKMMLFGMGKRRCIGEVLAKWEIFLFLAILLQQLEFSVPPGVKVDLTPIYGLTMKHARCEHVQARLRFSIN
Sequence of CYP2C9 (P11712 whole entry, canonical isoform): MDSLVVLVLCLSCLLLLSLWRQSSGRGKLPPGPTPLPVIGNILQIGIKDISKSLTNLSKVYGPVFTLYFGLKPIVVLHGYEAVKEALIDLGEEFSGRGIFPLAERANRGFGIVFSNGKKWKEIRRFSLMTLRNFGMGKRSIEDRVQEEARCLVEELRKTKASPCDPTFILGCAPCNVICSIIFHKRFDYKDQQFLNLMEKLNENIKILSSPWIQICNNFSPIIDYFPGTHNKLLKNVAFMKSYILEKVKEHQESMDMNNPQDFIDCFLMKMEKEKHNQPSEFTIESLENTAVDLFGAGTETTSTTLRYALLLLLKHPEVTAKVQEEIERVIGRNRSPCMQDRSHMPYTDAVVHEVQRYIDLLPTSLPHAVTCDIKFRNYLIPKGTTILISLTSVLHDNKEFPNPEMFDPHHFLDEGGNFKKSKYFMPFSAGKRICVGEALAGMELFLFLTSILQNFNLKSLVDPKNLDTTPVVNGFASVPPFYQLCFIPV
Sequence of CYP2D6 (P10635 whole entry, canonical isoform): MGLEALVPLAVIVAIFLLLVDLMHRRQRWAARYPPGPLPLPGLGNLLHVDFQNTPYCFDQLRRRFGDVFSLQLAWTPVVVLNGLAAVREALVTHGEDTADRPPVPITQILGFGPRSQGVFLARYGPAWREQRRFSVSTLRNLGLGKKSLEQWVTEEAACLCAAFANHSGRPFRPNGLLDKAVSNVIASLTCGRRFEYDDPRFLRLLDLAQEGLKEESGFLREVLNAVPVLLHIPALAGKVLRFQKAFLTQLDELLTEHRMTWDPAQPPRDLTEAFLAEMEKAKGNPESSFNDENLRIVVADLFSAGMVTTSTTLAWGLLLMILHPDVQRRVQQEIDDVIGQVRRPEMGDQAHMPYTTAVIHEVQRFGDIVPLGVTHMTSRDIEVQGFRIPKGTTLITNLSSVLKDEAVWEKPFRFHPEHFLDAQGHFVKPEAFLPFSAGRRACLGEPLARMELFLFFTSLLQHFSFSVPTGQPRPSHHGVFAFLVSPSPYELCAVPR

% Parent remaining(Mouse) ([1]; 0 min): 100%
% Parent remaining(Mouse) ([1]; 30 min): 100%
% Parent remaining(Mouse) ([1]; 60 min): 100%
% metabolised [2]: 99.98%
Observation (metabolism; for Test Product: of the formed rivaroxaban) [2]: High
% Parent remaining(rat) ([2]; 0 min): 100%
% Parent remaining(rat) ([2]; 15 min): 0.01%
% Parent remaining(rat) ([2]; 30 min): 0.02%
IC50 (CYP2D6): 13.2 µM
IC50 (CYP2C9): 16.7 µM
IC50 (CYP2C19): 13.2 µM
IC50 (μM) of CYP isoforms, 2J2 (CYP2J2): No inhibition
Conversion: unchanged, stable in plasma [3]: 99.99%,
% Parent remaining (Human) ([3]; 0 min): 100%
% Parent remaining (Human) ([3]; 30 min): 100%
% Parent remaining (Human) ([3]; 60 min): 99.68%
% metabolised [4]: 99.98%
Observation (metabolism; for Test Product: of the formed rivaroxaban) [4]: High
% Parent remaining(Mouse) ([4]; 0 min): 100%
% Parent remaining(Mouse) ([4]; 15 min): 0.03%
% Parent remaining(Mouse) ([4]; 30 min): 0.02%
Mean (ng) Urine ([5]; 120 h): BLQ
Mean (ng) Urine ([5]; 144 h): BLQ
concentration at 144 h ([5]; male, Wistar, rat, faeces, iv, 1 mg/kg): 16.8 ng/g
% metabolised [6]: 99.99%
Observation (metabolism; for Test Product: of the formed rivaroxaban) [6]: High
% Parent remaining (Human) ([6]; 0 min): 100%
% Parent remaining (Human) ([6]; 15 min): 0.01%
% Parent remaining (Human) ([6]; 30 min): 0.01%
Conversion: unchanged, stable in plasma [7]: 88.4%,
% Parent remaining(rat) ([7]; 0 min): 100%
% Parent remaining(rat) ([7]; 30 min): 82.35%
% Parent remaining(rat) ([7]; 60 min): 88.4%
IC50 (CYP1A2): 18.9 µM
SMILES: O=C(NC[C@H]1CN(c2ccc(N3CCOCC3=O)cc2)C(=O)O1)c1ccc(Cl)s1 [Rivaroxaban, 5-chloro-N-({(5S)-2-oxo-3-[4-(3-oxomorpholin-4-yl)phenyl]-1,3-oxazolidin-5-yl}methyl)thiophene-2-carboxamide]
